This note sets out measurements from ChEMBL document CHEMBL3826941, “Optimization of pyrazole-containing 1,2,4-triazolo-[3,4-b]thiadiazines, a new class of STAT3 pathway inhibitors” (Bioorg Med Chem Lett, 2016).

The nature of series [1]: Antiproliferative activity against human CAL33 cells assessed as cell growth inhibition. It is filed as functional, CAL-33.
The test system of the next series is FaDu. The series is described as follows: Antiproliferative activity against human FADU cells assessed as cell growth inhibition. It is filed as functional.
Series [2] in a line: Antiproliferative activity against human 686LN cells assessed as cell growth inhibition. The format is functional.
Series [3] in a line: Half life in mouse liver microsomes. It is filed as ADME. (In general: Liver microsomes are vesicles of endoplasmic reticulum, rich in cytochrome P450 enzymes.)
Series [4] is described as follows: Antiproliferative activity against human OSC19 cells assessed as cell growth inhibition. It is filed as functional.
Series [5] addresses T1, Signal transducer and activator of transcription 1-alpha/beta (Homo sapiens) (UniProt P42224).
T1 sequence (whole entry): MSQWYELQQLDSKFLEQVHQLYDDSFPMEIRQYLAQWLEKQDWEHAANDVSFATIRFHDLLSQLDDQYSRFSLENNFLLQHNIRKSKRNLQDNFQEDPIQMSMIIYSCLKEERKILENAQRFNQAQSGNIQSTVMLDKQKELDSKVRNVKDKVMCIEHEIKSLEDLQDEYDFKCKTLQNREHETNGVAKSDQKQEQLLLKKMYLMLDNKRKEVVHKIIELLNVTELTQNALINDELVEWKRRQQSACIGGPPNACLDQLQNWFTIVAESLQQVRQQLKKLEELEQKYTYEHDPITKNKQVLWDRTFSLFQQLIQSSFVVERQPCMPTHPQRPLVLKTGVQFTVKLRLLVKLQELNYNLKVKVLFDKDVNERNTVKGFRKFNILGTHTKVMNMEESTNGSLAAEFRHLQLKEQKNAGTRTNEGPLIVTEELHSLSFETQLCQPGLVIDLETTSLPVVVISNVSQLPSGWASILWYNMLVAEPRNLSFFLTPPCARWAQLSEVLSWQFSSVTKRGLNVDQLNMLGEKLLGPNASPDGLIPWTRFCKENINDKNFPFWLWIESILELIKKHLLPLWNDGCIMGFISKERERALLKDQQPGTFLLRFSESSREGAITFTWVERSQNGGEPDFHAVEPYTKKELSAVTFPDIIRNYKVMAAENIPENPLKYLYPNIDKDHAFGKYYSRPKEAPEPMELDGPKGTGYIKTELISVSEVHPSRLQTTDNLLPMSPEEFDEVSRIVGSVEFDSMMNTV
The series is described as follows: Inhibition of IFNgamma-induced STAT1 (unknown origin) at 50 uM.

Another series concerns Liver microsome. The experiment in a line: Half life in human liver microsomes. The format is ADME.
The target of series [6] is Signal transducer and activator of transcription 3 (Homo sapiens) (UniProt P40763). The series is described as follows: Inhibition of STAT3 phosphorylation at Tyr705 in IL6-induced human CAL33 cells assessed as phosphorylated STAT3 at Tyr705 to STAT3 ratio at 10 uM by Western blot analysis. The format is cell-based. Particulars: CAL-33. In general terms: A western blot detects proteins with antibodies after separation by electrophoresis.

The target is the same in series [7]. The experiment in a line: Inhibition of STAT3 phosphorylation at Tyr705 in IL6-induced human CAL33 cells assessed as phosphorylated STAT3 at Tyr705 to STAT3 ratio at 100 uM by Western blot analysis. It is filed as cell-based. As to conditions: CAL-33.
For series [8] the target is unchanged. The series is described as follows: Inhibition of STAT3 phosphorylation at Tyr705 in IL6-induced human CAL33 cells at 3 to 100 uM by Western blot analysis. The format is cell-based. As to conditions: CAL-33.
The target is the same in series [9]. The series is described as follows: Inhibition of STAT3 phosphorylation at Tyr705 in IL6-induced human CAL33 cells assessed as phosphorylated STAT3 at Tyr705 to STAT3 ratio at 30 uM by Western blot analysis. It is filed as cell-based. As to conditions: CAL-33.
The target is the same in series [10]. The experiment in a line: Inhibition of STAT3 in IL6-induced human CAL33 cells assessed as inhibition of Bcl-XL gene levels at 3 to 100 uM by Western blot analysis. It is filed as cell-based. As to conditions: CAL-33.
Series [11] has the same target. The experiment in a line: Inhibition of STAT3 in IL6-induced human CAL33 cells assessed as inhibition of cyclin D1 gene levels at 3 to 100 uM by Western blot analysis. It is filed as cell-based. Particulars: CAL-33.

The source made the active and inactive calls. The calls are words filed in the database; no cut-off is given here.

Signal transducer and activator of transcription 3 (Homo sapiens), sequence (P40763 whole entry): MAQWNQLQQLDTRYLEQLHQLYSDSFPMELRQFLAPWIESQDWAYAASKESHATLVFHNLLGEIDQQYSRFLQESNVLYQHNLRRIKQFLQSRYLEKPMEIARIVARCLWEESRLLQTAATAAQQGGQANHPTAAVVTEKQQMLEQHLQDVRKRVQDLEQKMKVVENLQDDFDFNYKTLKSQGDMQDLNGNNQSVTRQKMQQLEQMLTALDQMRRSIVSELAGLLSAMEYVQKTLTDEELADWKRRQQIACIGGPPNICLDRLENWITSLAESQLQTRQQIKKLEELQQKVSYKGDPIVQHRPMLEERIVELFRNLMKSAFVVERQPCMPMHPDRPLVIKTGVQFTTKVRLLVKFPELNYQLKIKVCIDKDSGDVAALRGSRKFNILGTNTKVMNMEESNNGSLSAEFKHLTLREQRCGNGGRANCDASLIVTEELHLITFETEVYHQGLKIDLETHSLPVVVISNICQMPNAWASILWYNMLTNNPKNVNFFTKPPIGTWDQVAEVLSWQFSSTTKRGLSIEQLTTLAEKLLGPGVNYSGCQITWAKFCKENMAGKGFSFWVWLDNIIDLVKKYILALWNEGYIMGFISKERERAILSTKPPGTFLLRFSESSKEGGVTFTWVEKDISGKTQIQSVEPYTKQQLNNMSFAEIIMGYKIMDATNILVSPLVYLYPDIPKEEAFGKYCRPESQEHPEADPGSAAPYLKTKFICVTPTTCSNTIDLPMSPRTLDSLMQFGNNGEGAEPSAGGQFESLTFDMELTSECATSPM

The term GI50 denotes the concentration giving 50% growth inhibition. Take `COc1ccc(C2=Nn3c(nnc3-c3[nH]nc4c3CCC4)SC2C(C)C)cc1` (stereo unspecified): in [1] (Homo sapiens, CAL-33), the GI50 was 0.4 µM.

For the compound `COCCC1Sc2nnc(-c3cc(-c4ccccc4)n[nH]3)n2N=C1c1ccc(OC)cc1` (stereo unspecified), the 50% growth inhibitory concentration (GI50) in series [1] (Homo sapiens, CAL-33) amounted to 0.04 µM.

Regarding `CC1(C)Sc2nnc(-c3[nH]nc4c3CCC4)n2N=C1c1ccc(Cl)c(Cl)c1`, the GI50 in series [1] (Homo sapiens, CAL-33) is above 50 µM.

As usually defined, the inhibition is how much of the control response was suppressed. `Clc1ccc(C2=Nn3c(nnc3-c3[nH]nc4c3CCC4)SC2)cc1Cl`: the concentration for 50% growth inhibition (GI50) is 14 µM with FaDu; 14 µM in series [1] (Homo sapiens, CAL-33); 14 µM in [2]; 14 µM in series [4]. In addition, the figures for the t1/2 (in series [3]; with Liver microsome) were 4 min and 14 min, respectively. Further, in series [5], the inhibition entry is “inactive”.

`Clc1ccc(C2=Nn3c(nnc3-c3cc(-c4ccccc4)[nH]n3)SC2)cc1`: the GI50 was determined as 27 µM in the series with FaDu; 27 µM in [1] (Homo sapiens, CAL-33); 27 µM in series [2]; 27 µM in [4]. In addition, the inhibition entry in [5] is “inactive”.

Regarding `Clc1ccc(C2=Nn3c(nnc3-c3[nH]nc4c3CCC4)SC2Cc2ccccc2)cc1Cl` (stereo unspecified), in series [1] (Homo sapiens, CAL-33), the GI50 was 3.3 µM.

As for `CC1Sc2nnc(-c3[nH]nc4c3CCC4)n2N=C1c1ccc(Cl)c(Cl)c1` (stereo unspecified), in series [1] (Homo sapiens, CAL-33), the GI50 worked out at 1.9 µM.

`CC1Sc2nnc(-c3cc(-c4ccccc4)n[nH]3)n2N=C1c1ccccc1` (stereo unspecified): the inhibition in series [6] is 15%; in [7], 99%; in series [9] it was 28%. Further, the inhibition result in [8], in series [10] and in series [11] was “Active” throughout. For the same compound, the GI50 in the series on FaDu was determined as 32.7 µM; in series [1] (Homo sapiens, CAL-33), 34.1 µM; in series [2], 32.2 µM; in series [4] it was 31.3 µM. The t1/2 in [3] is listed as 10 min; with Liver microsome, 27 min.

As to `COc1ccc(C2=Nn3c(nnc3-c3[nH]nc4c3CCC4)SC2C)cc1` (stereo unspecified), the GI50 worked out at 1.3 µM in the series with FaDu; 0.18 µM in [1] (Homo sapiens, CAL-33); 0.88 µM in [2]; 3.1 µM in series [4].

With `COc1ccc(C2=Nn3c(nnc3-c3cc(-c4ccc(F)cc4)n[nH]3)SC2C)cc1` (stereo unspecified), in series [1] (Homo sapiens, CAL-33), the GI50 amounted to 29.5 µM.

`COc1ccc(C2=Nn3c(nnc3-c3cc(-c4ccc(Cl)cc4)n[nH]3)SC2C)cc1` (stereo in doubt; form 2): the GI50 in series [1] was 2.7 µM.

Consider `COc1ccc(C2=Nn3c(nnc3-c3cc(-c4ccccc4)n[nH]3)SC2CCN)cc1` (stereo unspecified), for which the GI50 in [1] (Homo sapiens, CAL-33) was 2.5 µM.

`CC1Sc2nnc(-c3cc(-c4ccc(F)cc4)n[nH]3)n2N=C1c1ccccc1` (stereo unspecified): the 50% growth inhibitory concentration (GI50) in [1] (Homo sapiens, CAL-33) was 36.3 µM.

For `COc1ccc(C2=Nn3c(nnc3-c3cc(-c4ccc(Cl)cc4)n[nH]3)SC2C)cc1` (stereo in doubt; form 1) [listing 1 of 2 here], the GI50 is 8.4 µM in the series on FaDu, 2.2 µM in series [1], 17.4 µM in series [2] and 14.9 µM in series [4].

For `COc1ccc(C2=Nn3c(nnc3-c3cc(-c4ccccc4)n[nH]3)SC2CC(C)C)cc1` (stereo unspecified), in series [1] (Homo sapiens, CAL-33), the concentration for 50% growth inhibition (GI50) was 0.5 µM.

`COc1ccc(C2=Nn3c(nnc3-c3cc(-c4ccc(Cl)cc4)n[nH]3)SC2C)cc1` (stereo in doubt; form 3): in [1], the concentration for 50% growth inhibition (GI50) amounted to 21.8 µM.

Take `CC(C)CC1Sc2nnc(-c3[nH]nc4c3CCC4)n2N=C1c1ccc(Cl)c(Cl)c1` (stereo unspecified): in series [1] (Homo sapiens, CAL-33), the GI50 came to 3.5 µM.

On to `COc1ccc(C2=Nn3c(nnc3-c3cc(-c4ccc(Cl)cc4)n[nH]3)SC2C)cc1` (stereo in doubt; form 1) [listing 2 of 2 here], for which the results for the inhibition in series [6], in [7] and in [9] were 21%, 99.7% and 55%, respectively. In addition, the inhibition entry in series [8], in series [10] and in series [11] was “Active” each time.

As for `CC(C)C1Sc2nnc(-c3[nH]nc4c3CCC4)n2N=C1c1ccc(Cl)c(Cl)c1` (stereo unspecified), in [1] (Homo sapiens, CAL-33), the GI50 came to 8.2 µM.
